Reference: patent US8299111B2, “Compounds which modulate the CB2 receptor” (Boehringer Ingelheim International GmbH, priority 2006, dated 2012)

Each compound was assayed against T1, human CB2R (Homo sapiens, UniProt P34972) (assay: CB2R mediated modulation of cAMP synthesis). Conditions: found through the use of the above described assays (binding and cAMP); CHO cells expressing human CB2R, forskolin-stimulated cAMP.
T1 construct: host or cells: CHO cells
Type: cell-based
Method in brief: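 CHO cells expressing human CB2R were treated for 30 min at 37 °C with compound in buffer containing 1 mM IBMX, 0.25% BSA and 10 uM forskolin. cAMP was measured after lysis. EC50 is the concentration giving 50% inhibition of forskolin-stimulated cAMP, scaled to the level set by 1 uM CP55940, fitted by four-parameter logistic.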

T1 sequence (P34972 whole entry): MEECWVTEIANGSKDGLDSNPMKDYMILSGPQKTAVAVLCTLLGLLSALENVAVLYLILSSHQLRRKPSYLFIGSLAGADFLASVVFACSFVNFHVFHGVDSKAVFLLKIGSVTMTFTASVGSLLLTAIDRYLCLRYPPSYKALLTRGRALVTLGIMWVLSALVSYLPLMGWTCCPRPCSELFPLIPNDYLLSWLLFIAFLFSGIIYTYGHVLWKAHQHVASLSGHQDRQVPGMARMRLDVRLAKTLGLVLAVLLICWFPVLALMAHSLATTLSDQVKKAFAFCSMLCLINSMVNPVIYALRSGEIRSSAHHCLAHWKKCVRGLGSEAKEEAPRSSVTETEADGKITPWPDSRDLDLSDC

agonistic activity | SMILES
agonistic activity | CC(C)(C(=O)Nc1ccc(C(F)(F)F)cn1)S(=O)(=O)c1ccc(F)cc1 [2-(4-Fluoro-benzenesulfonyl)-2-methyl-N-(5-trifluoromethyl-pyridin-2-yl)-propionamide]
agonistic activity | CC(C)(C(=O)Nc1ncc(-c2ccc(F)cc2)s1)S(=O)(=O)c1ccc(F)cc1 [2-(4-Fluoro-benzenesulfonyl)-N-[5-(4-fluoro-phenyl)-thiazol-2-yl]-2-methyl-propionamide]
agonistic activity | Cc1ccc(NC(=O)C(C)(C)S(=O)(=O)c2ccc(S(C)(=O)=O)cc2)nc1 [2-(4-Methanesulfonyl-benzenesulfonyl)-2-methyl-N-(5-methyl-pyridin-2-yl)-propionamide]
agonistic activity | CC(C)(C(=O)Nc1cccc2ccccc12)S(=O)(=O)c1ccc(S(C)(=O)=O)cc1 [2-(4-Methanesulfonyl-benzenesulfonyl)-2-methyl-N-naphthalen-1-yl-propionamide]
agonistic activity | CC(C)(C(=O)Nc1cnc2ccccc2c1)S(=O)(=O)c1ccc(S(C)(=O)=O)cc1 [2-(4-Methanesulfonyl-benzenesulfonyl)-2-methyl-N-quinolin-3-yl-propionamide]
agonistic activity | COc1ccc(S(=O)(=O)C(C)(C)C(=O)Nc2cc(-c3ccccc3)nn2C)cc1 [2-(4-Methoxy-benzenesulfonyl)-2-methyl-N-(2-methyl-5-phenyl-2H-pyrazol-3-yl)-propionamide]
agonistic activity | COc1ccc(S(=O)(=O)C(C)(C)C(=O)Nc2cc(-c3cccs3)nn2C)cc1 [2-(4-Methoxy-benzenesulfonyl)-2-methyl-N-(2-methyl-5-thiophen-2-yl-2H-pyrazol-3-yl)-propionamide]
agonistic activity | COc1ccc(S(=O)(=O)C(C)(C)C(=O)Nc2cnc3ccccc3c2)cc1 [2-(4-Methoxy-benzenesulfonyl)-2-methyl-N-quinolin-3-yl-propionamide]
agonistic activity | CC(C)(C)c1ccc(S(=O)(=O)C(C)(C)C(=O)Nc2cc(C(C)(C)C)on2)cc1 [2-(4-tert-Butyl-benzenesulfonyl)-N-(5-tert-butyl-isoxazol-3-yl)-2-methyl-propionamide]
agonistic activity | CC(C)(C(=O)Nc1cccc(C(F)(F)F)n1)S(=O)(=O)c1ccc(N2CCC2)nc1 [2-(6-Azetidin-1-yl-pyridine-3-sulfonyl)-2-methyl-N-(6-trifluoromethyl-pyridin-2-yl)-propionamide]
agonistic activity | CC(C)(C)c1csc(NC(=O)C(C)(C)S(=O)(=O)c2ccc(N3CCC3)nc2)n1 [2-(6-Azetidin-1-yl-pyridine-3-sulfonyl)-N-(4-tert-butyl-thiazol-2-yl)-2-methyl-propionamide]
agonistic activity | CC(C)(C(=O)Nc1cccc(C(F)(F)F)n1)S(=O)(=O)c1ccc(Cl)nc1 [2-(6-Chloro-pyridine-3-sulfonyl)-2-methyl-N-(6-trifluoromethyl-pyridin-2-yl)-propionamide]
agonistic activity | CC(C)(C)c1cc(NC(=O)C(C)(C)S(=O)(=O)c2ccc3nsnc3c2)no1 [2-(Benzo[1,2,5]thiadiazole-5-sulfonyl)-N-(5-tert-butyl-isoxazol-3-yl)-2-methyl-propionamide]
agonistic activity | Cn1nc(-c2ccccc2)cc1NC(=O)C(C)(C)S(=O)(=O)c1ccccc1 [2-Benzenesulfonyl-2-methyl-N-(2-methyl-5-phenyl-2H-pyrazol-3-yl)-propionamide]
agonistic activity | CC(C)(C(=O)Nc1nc(-c2ccccc2)co1)S(=O)(=O)c1ccccc1 [2-Benzenesulfonyl-2-methyl-N-(4-phenyl-oxazol-2-yl)-propionamide]
agonistic activity | CC(C)(C(=O)Nc1nc(C(F)(F)F)cs1)S(=O)(=O)c1ccccc1 [2-Benzenesulfonyl-2-methyl-N-(4-trifluoromethyl-thiazol-2-yl)-propionamide]

agonistic activity | SMILES
agonistic activity | CC(C)(C(=O)Nc1ccc(C(F)(F)F)cn1)S(=O)(=O)c1ccccc1 [2-Benzenesulfonyl-2-methyl-N-(5-trifluoromethyl-pyridin-2-yl)-propionamide]
agonistic activity | CC(C)(C(=O)Nc1cccc(C(F)(F)F)n1)S(=O)(=O)c1ccccc1 [2-Benzenesulfonyl-2-methyl-N-(6-trifluoromethyl-pyridin-2-yl)-propionamide]
agonistic activity | CC(C)(C)c1csc(NC(=O)C(C)(C)S(=O)(=O)c2ccccc2)n1 [2-Benzenesulfonyl-N-(4-tert-butyl-thiazol-2-yl)-2-methyl-propionamide]
agonistic activity | CCc1sc(NC(=O)C(C)(C)S(=O)(=O)c2ccccc2)nc1-c1ccccc1 [2-Benzenesulfonyl-N-(5-ethyl-4-phenyl-thiazol-2-yl)-2-methyl-propionamide]
agonistic activity | Cn1nc(C(C)(C)C)cc1NC(=O)C(C)(C)S(=O)(=O)c1ccccc1 [2-Benzenesulfonyl-N-(5-tert-butyl-2-methyl-2H-pyrazol-3-yl)-2-methyl-propionamide]
agonistic activity | CC(C)(C)c1cc(NC(=O)C(C)(C)S(=O)(=O)c2ccccc2)no1 [2-Benzenesulfonyl-N-(5-tert-butyl-isoxazol-3-yl)-2-methyl-propionamide]
agonistic activity | Cc1ccc(S(=O)(=O)C(C)(C)C(=O)Nc2ccc(C(F)(F)F)cn2)cn1 [2-Methyl-2-(6-methyl-pyridine-3-sulfonyl)-N-(5-trifluoromethyl-pyridin-2-yl)-propionamide]
agonistic activity | Cc1ccc(S(=O)(=O)C(C)(C)C(=O)Nc2cccc(C(F)(F)F)n2)cn1 [2-Methyl-2-(6-methyl-pyridine-3-sulfonyl)-N-(6-trifluoromethyl-pyridin-2-yl)-propionamide]
agonistic activity | CC(C)(C(=O)Nc1ccc(C(F)(F)F)cn1)S(=O)(=O)c1ccc(N2CCOCC2)nc1 [2-Methyl-2-(6-morpholin-4-yl-pyridine-3-sulfonyl)-N-(5-trifluoromethyl-pyridin-2-yl)-propionamide]
agonistic activity | CC(C)(C(=O)Nc1cc(C(F)(F)F)ccn1)S(=O)(=O)c1ccc(C(F)(F)F)nc1 [2-Methyl-2-(6-trifluoromethyl-pyridine-3-sulfonyl)-N-(4-trifluoromethyl-pyridin-2-yl)-propionamide]
agonistic activity | CC(C)(C(=O)Nc1ccc(C(F)(F)F)cn1)S(=O)(=O)c1ccc(C(F)(F)F)nc1 [2-Methyl-2-(6-trifluoromethyl-pyridine-3-sulfonyl)-N-(5-trifluoromethyl-pyridin-2-yl)-propionamide]
agonistic activity | Cc1ccc(S(=O)(=O)C(C)(C)C(=O)Nc2nc(C(F)(F)F)cs2)cc1 [2-Methyl-2-(toluene-4-sulfonyl)-N-(4-trifluoromethyl-thiazol-2-yl)-propionamide]
agonistic activity | Cc1ccc(S(=O)(=O)C(C)(C)C(=O)Nc2ccc(C(F)(F)F)cn2)cc1 [2-Methyl-2-(toluene-4-sulfonyl)-N-(5-trifluoromethyl-pyridin-2-yl)-propionamide]
agonistic activity | Cc1ccc(S(=O)(=O)C(C)(C)C(=O)Nc2cccc(C(F)(F)F)n2)cc1 [2-Methyl-2-(toluene-4-sulfonyl)-N-(6-trifluoromethyl-pyridin-2-yl)-propionamide]
agonistic activity | Cn1nc(-c2ccccc2)cc1NC(=O)C(C)(C)S(=O)(=O)c1ccc(C(F)(F)F)nc1 [2-Methyl-N-(2-methyl-5-phenyl-2H-pyrazol-3-yl)-2-(6-trifluoromethyl-pyridine-3-sulfonyl)-propionamide]

SMILES | agonistic activity
CC(C)(C(=O)Nc1ccc(C(F)(F)F)cn1)S(=O)(=O)c1ccc(C#N)cc1F [2-(4-Cyano-2-fluoro-benzenesulfonyl)-2-methyl-N-(5-trifluoromethyl-pyridin-2-yl)-propionamide] | agonistic activity
CC(C)(C(=O)Nc1ccc(C(F)(F)F)cn1)S(=O)(=O)c1ccc(C#N)cc1 [2-(4-Cyano-benzenesulfonyl)-2-methyl-N-(5-trifluoromethyl-pyridin-2-yl)-propionamide] | agonistic activity
CC(C)(C(=O)Nc1cccc(C(F)(F)F)n1)S(=O)(=O)c1ccc(F)cc1 [2-(4-Fluoro-benzenesulfonyl)-2-methyl-N-(6-trifluoromethyl-pyridin-2-yl)-propionamide] | agonistic activity
COc1ccc(S(=O)(=O)C(C)(C)C(=O)Nc2nc(C(F)(F)F)cs2)cc1 [2-(4-Methoxy-benzenesulfonyl)-2-methyl-N-(4-trifluoromethyl-thiazol-2-yl)-propionamide] | agonistic activity
CC(C)(C(=O)Nc1ccc(C(F)(F)F)cn1)S(=O)(=O)c1ccc(Cl)nc1 [2-(6-Chloro-pyridine-3-sulfonyl)-2-methyl-N-(5-trifluoromethyl-pyridin-2-yl)-propionamide] | agonistic activity
Cc1nc(NC(=O)C(C)(C)S(=O)(=O)c2ccccc2)sc1C(C)(C)C [2-Benzenesulfonyl-N-(5-tert-butyl-4-methyl-thiazol-2-yl)-2-methyl-propionamide] | agonistic activity
CC(C)(C(=O)Nc1nc(-c2ccc(Cl)cc2)cs1)S(=O)(=O)c1ccccc1 [2-Benzenesulfonyl-N-[4-(4-chloro-phenyl)-thiazol-2-yl]-2-methyl-propionamide] | agonistic activity
CC(C)(C(=O)Nc1ccc(C(F)(F)F)cn1)S(=O)(=O)c1ccc(C(F)(F)F)cc1 [2-Methyl-2-(4-trifluoromethyl-benzenesulfonyl)-N-(5-trifluoromethyl-pyridin-2-yl)-propionamide] | agonistic activity
